Data: PubChem BioAssay AID1963433 (Molecular Pharmacology Branch, DTP, NCI, 2024)

System: 772245-204-R-J1-PDC complex spheroid growth
Assay: Anticancer human tumor 772245-204-R-J1-PDC patient-derived rhabdomyosarcoma cell line growth inhibition [Asc]
Details: for IC50: curve of first compound; for viability, T/C: stronger effect = lower value
In short: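 Stromal components (HUVEC and hMSC) are co-assembled with the cancer cells into multicellular spheroids. Drugs are then added singly or paired, at concentrations falling by half-log increments from a clinically achievable maximum, capped at 10 microM without known Cmax.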

[1] = second compound 0.01 µM, first compound 0.0316 µM
[2] = second compound 0.01 µM, first compound 0.1 µM
[3] = second compound 0.01 µM, first compound 0.316 µM
[4] = second compound 0.01 µM, first compound 1 µM
[5] = second compound 0.01 µM, first compound 3.16 µM
[6] = second compound 0.01 µM, first compound 10 µM
[7] = second compound 0.0316 µM, first compound 0.0316 µM
[8] = second compound 0.0316 µM, first compound 0.1 µM
[9] = second compound 0.0316 µM, first compound 0.316 µM
[10] = second compound 0.0316 µM, first compound 1 µM
[11] = second compound 0.0316 µM, first compound 3.16 µM
[12] = second compound 0.0316 µM, first compound 10 µM
[13] = second compound 0.1 µM, first compound 0.0316 µM
[14] = second compound 0.1 µM, first compound 0.1 µM
[15] = second compound 0.1 µM, first compound 0.316 µM
[16] = second compound 0.1 µM, first compound 1 µM
[17] = second compound 0.1 µM, first compound 3.16 µM
[18] = second compound 0.1 µM, first compound 10 µM
[19] = second compound 0.316 µM, first compound 0.0316 µM
[20] = second compound 0.316 µM, first compound 0.1 µM
[21] = second compound 0.316 µM, first compound 0.316 µM
[22] = second compound 0.316 µM, first compound 1 µM
[23] = second compound 0.316 µM, first compound 3.16 µM
[24] = second compound 0.316 µM, first compound 10 µM
[25] = second compound 1 µM, first compound 0.0316 µM
[26] = second compound 1 µM, first compound 0.1 µM
[27] = second compound 1 µM, first compound 0.316 µM
[28] = second compound 1 µM, first compound 1 µM
[29] = second compound 1 µM, first compound 3.16 µM
[30] = second compound 1 µM, first compound 10 µM
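Further: compound exposure lasted seven days.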
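Wherever viability, T/C is given: 100% = DMSO vehicle control viability.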

C=C(F)C(=O)N1CCN(c2nc(OCC3CCCN3C)nc3c2CCN(c2cccc4cccc(Cl)c24)C3)CC1CC#N (stereo not given) + CNC(C)C(=O)NC1CN(S(=O)(=O)c2cccc(S(=O)(=O)N3CCC4CCC(C(=O)NC(c5ccccc5)c5ccccc5)N4C(=O)C(NC(=O)C(C)NC)C3)c2)CCC2CCC(C(=O)NC(c3ccccc3)c3ccccc3)N2C1=O
IC50 (second compound 0.01 µM): 5.51 µM | IC50 (second compound 0.0316 µM): 6.3 µM | IC50 (second compound 0.1 µM): 4.84 µM | IC50 (second compound 0.316 µM): 4.88 µM | IC50 (second compound 1 µM): 4.84 µM | viability, T/C [1]: 98.8% | viability, T/C [2]: 102% | viability, T/C [3]: 91.3% | viability, T/C [4]: 108% | viability, T/C [5]: 87.2% | viability, T/C [6]: 9.53% | viability, T/C [7]: 112% | viability, T/C [8]: 105% | viability, T/C [9]: 97.5% | viability, T/C [10]: 99.7% | viability, T/C [11]: 97.6% | viability, T/C [12]: 18% | viability, T/C [13]: 100% | viability, T/C [14]: 91.1% | viability, T/C [15]: 95% | viability, T/C [16]: 94.4% | viability, T/C [17]: 79.2% | viability, T/C [18]: 0.25% | viability, T/C [19]: 98% | viability, T/C [20]: 94.1% | viability, T/C [21]: 84.4% | viability, T/C [22]: 105% | viability, T/C [23]: 80.2% | viability, T/C [24]: 0.26% | viability, T/C [25]: 93.5% | viability, T/C [26]: 106% | viability, T/C [27]: 87.1% | viability, T/C [28]: 82.9% | viability, T/C [29]: 81.4% | viability, T/C [30]: 0.98%

C=CC(=O)N1CCN(c2nc(=O)n(-c3c(C)ccnc3C(C)C)c3nc(-c4c(O)cccc4F)c(F)cc23)C(C)C1 (stereo not given) + CNC(C)C(=O)NC1CN(S(=O)(=O)c2cccc(S(=O)(=O)N3CCC4CCC(C(=O)NC(c5ccccc5)c5ccccc5)N4C(=O)C(NC(=O)C(C)NC)C3)c2)CCC2CCC(C(=O)NC(c3ccccc3)c3ccccc3)N2C1=O
IC50 (second compound 0.01 µM): > 10 µM | IC50 (second compound 0.0316 µM): > 10 µM | IC50 (second compound 0.1 µM): > 10 µM | IC50 (second compound 0.316 µM): > 10 µM | IC50 (second compound 1 µM): > 10 µM | viability, T/C [1]: 98.5% | viability, T/C [2]: 84.7% | viability, T/C [3]: 91.6% | viability, T/C [4]: 100% | viability, T/C [5]: 92% | viability, T/C [6]: 89% | viability, T/C [7]: 94.4% | viability, T/C [8]: 93.6% | viability, T/C [9]: 101% | viability, T/C [10]: 92.7% | viability, T/C [11]: 101% | viability, T/C [12]: 90.6% | viability, T/C [13]: 92% | viability, T/C [14]: 88.9% | viability, T/C [15]: 108% | viability, T/C [16]: 97.2% | viability, T/C [17]: 88.8% | viability, T/C [18]: 92.2% | viability, T/C [19]: 94.5% | viability, T/C [20]: 95.5% | viability, T/C [21]: 97.6% | viability, T/C [22]: 103% | viability, T/C [23]: 95.7% | viability, T/C [24]: 80.1% | viability, T/C [25]: 106% | viability, T/C [26]: 94.3% | viability, T/C [27]: 101% | viability, T/C [28]: 97.2% | viability, T/C [29]: 88.9% | viability, T/C [30]: 95%

CCN1C(C(=O)NC23CCC(C(=O)O)(CC2)CC3)C(c2cccc(Cl)c2F)C2(C(=O)Nc3cc(Cl)ccc32)C12CCCCC2 (stereo not given) + CNC(C)C(=O)NC1CN(S(=O)(=O)c2cccc(S(=O)(=O)N3CCC4CCC(C(=O)NC(c5ccccc5)c5ccccc5)N4C(=O)C(NC(=O)C(C)NC)C3)c2)CCC2CCC(C(=O)NC(c3ccccc3)c3ccccc3)N2C1=O
IC50 (second compound 0.01 µM): > 3 µM | IC50 (second compound 0.0316 µM): > 3 µM | IC50 (second compound 0.1 µM): > 3 µM | IC50 (second compound 0.316 µM): > 3 µM | IC50 (second compound 1 µM): > 3 µM | viability, T/C (second compound 0.01 µM, first compound 0.00949 µM): 103% | viability, T/C (second compound 0.01 µM, first compound 0.03 µM): 106% | viability, T/C (second compound 0.01 µM, first compound 0.0949 µM): 111% | viability, T/C (second compound 0.01 µM, first compound 0.3 µM): 96.1% | viability, T/C (second compound 0.01 µM, first compound 0.949 µM): 80.3% | viability, T/C (second compound 0.01 µM, first compound 3 µM): 77.4% | viability, T/C (second compound 0.0316 µM, first compound 0.00949 µM): 97.7% | viability, T/C (second compound 0.0316 µM, first compound 0.03 µM): 105% | viability, T/C (second compound 0.0316 µM, first compound 0.0949 µM): 98.2% | viability, T/C (second compound 0.0316 µM, first compound 0.3 µM): 90.9% | viability, T/C (second compound 0.0316 µM, first compound 0.949 µM): 93.3% | viability, T/C (second compound 0.0316 µM, first compound 3 µM): 75.7% | viability, T/C (second compound 0.1 µM, first compound 0.00949 µM): 97.9% | viability, T/C (second compound 0.1 µM, first compound 0.03 µM): 102% | viability, T/C (second compound 0.1 µM, first compound 0.0949 µM): 88.5% | viability, T/C (second compound 0.1 µM, first compound 0.3 µM): 91% | viability, T/C (second compound 0.1 µM, first compound 0.949 µM): 82.2% | viability, T/C (second compound 0.1 µM, first compound 3 µM): 65.2% | viability, T/C (second compound 0.316 µM, first compound 0.00949 µM): 96.6% | viability, T/C (second compound 0.316 µM, first compound 0.03 µM): 96.4% | viability, T/C (second compound 0.316 µM, first compound 0.0949 µM): 98.6% | viability, T/C (second compound 0.316 µM, first compound 0.3 µM): 92.3% | viability, T/C (second compound 0.316 µM, first compound 0.949 µM): 86.8% | viability, T/C (second compound 0.316 µM, first compound 3 µM): 105% | viability, T/C (second compound 1 µM, first compound 0.00949 µM): 103% | viability, T/C (second compound 1 µM, first compound 0.03 µM): 105% | viability, T/C (second compound 1 µM, first compound 0.0949 µM): 96.2% | viability, T/C (second compound 1 µM, first compound 0.3 µM): 89.1% | viability, T/C (second compound 1 µM, first compound 0.949 µM): 86.4% | viability, T/C (second compound 1 µM, first compound 3 µM): 76.3%
